Results published in ChEMBL document CHEMBL1132272, “Prediction of ligand-receptor binding thermodynamics by free energy force field three-dimensional quantitative structure-activity relationship analysis: applications to a set of glucose analogue inhibitors of glycogen phosphorylase” (J Med Chem, 1999).

assay: The compound was evaluated for the inhibition of glycogen phosphorylase

| SMILES | Ki [µM] |
| --- | --- |
| OC[C@H]1O[C@](O)(CO)[C@@H](O)[C@H](O)[C@H]1O | 15800 |
| O=C(Nc1ccccc1)C1OC(CO)C(O)C(O)C1O (stereo unspecified) | 5400 |
| NNC(=O)[C@@H]1O[C@H](CO)[C@@H](O)[C@H](O)[C@H]1O | 980 |
| O=C(CCl)N[C@H]1O[C@H](CO)[C@@H](O)[C@H](O)[C@H]1O | 45 |
| CCCC(=O)N[C@H]1O[C@H](CO)[C@@H](O)[C@H](O)[C@H]1O | 94 |
| O=C(N[C@H]1O[C@H](CO)[C@@H](O)[C@H](O)[C@H]1O)c1ccccc1 | 81 |
| CCC(=O)N[C@H]1O[C@H](CO)[C@@H](O)[C@H](O)[C@H]1O | 39 |
| O=C(CBr)N[C@H]1O[C@@H](CO)[C@@H](O)[C@H](O)[C@@H]1O | 44 |
| NCC(=O)N[C@H]1O[C@@H](CO)[C@@H](O)[C@H](O)[C@@H]1O | 370 |

Second part, the compound after the results:

| Ki [µM] | SMILES |
| --- | --- |
| 9000 | N#CC[C@@H]1O[C@H](CO)[C@@H](O)[C@H](O)[C@H]1O |
| 1000 | OCC1OC(S)C(O)C(O)C1O (stereo unspecified) |
| 53100 | CC1OC(CO)C(O)C(O)C1O (stereo unspecified) |
| 1500 | OCC1OC(CO)C(O)C(O)C1O (stereo unspecified) |
| 140 | NC(=O)N[C@H]1O[C@H](CO)[C@@H](O)[C@H](O)[C@H]1O |
| 32 | CC(=O)N[C@H]1O[C@H](CO)[C@@H](O)[C@H](O)[C@H]1O |
| 24700 | CO[C@@H]1O[C@H](CO)[C@H](O)[C@H](O)[C@H]1O |
| 34500 | NCC1OC(CO)C(O)C(O)C1O (stereo unspecified) |
| 160 | CNC(=O)C1OC(CO)C(O)C(O)C1O (stereo in doubt; 8) |
| 370 | NC(=O)C1OC(CO)C(O)C(O)C1O (stereo in doubt; 10) |
| 440 | NC(=O)C1OC(CO)C(O)C(O)C1O (stereo in doubt; 11) |
| 36700 | CNC(=O)C1OC(CO)C(O)C(O)C1O (stereo in doubt; 22) |
